Legend:
[1] = target: purified human Factor XIa (Homo sapiens (Human), UniProt P03951); test: Factor XIa Assay; type: biochemical; conditions: purified human Factor XIa 40 pM, substrate Z-Gly-Pro-Arg-AFC, pH 7.4; read-out: FXIa IC50
Description: The effectiveness of a compound of the present invention as an inhibitor of Coagulation Factor XIa can be determined using a relevant purified serine protease, and an appropriate synthetic substrate. The rate of hydrolysis of the chromogenic or fluorogenic substrate by the relevant serine protease was measured both in the absence and presence of compounds of the present invention. Assays were conducted at room temperature or at 37° C. […] A decrease in the rate of fluorescence change in the presence of inhibitor is indicative of enzyme inhibition. Such methods are known to one skilled in the art. […]
Factor XIa determinations were made in 50 mM HEPES buffer at pH 7.4 containing 150 mM NaCl, 5 mM CaCl2, and 0.1% PEG 8000 (polyethylene glycol; JT Baker or Fisher Scientific). Determinations were made using purified human Factor XIa at a final concentration of 40 pM (Sekisui Diagnostics) and he synthetic substrate, Z-Gly-Pro-Arg-AFC, TFA salt (Sigma #C0980) at a concentration of 100 µM.
Activity assays were performed by diluting a stock solution of substrate at least tenfold to a final concentration ≦0.1 Km into a solution containing enzyme or enzyme equilibrated with inhibitor. Times required to achieve equilibration between enzyme and inhibitor were determined in control experiments. Initial velocities of product formation in the absence (Vo) or presence of inhibitor (Vi) were measured. Assuming competitive inhibition, and that unity is negligible compared Km/[S], [I]/e, and [I]/e (where [S], [I], and e respectively represent the total concentrations, of substrate, inhibitor and enzyme), the equilibrium constant (Ki) for dissociation of the inhibitor from the enzyme can be obtained from the dependence of Vo/Vi on [I] shown in the following equation.

[2] = target: purified Human plasma kallikrein (Homo sapiens (Human), UniProt P03952); test: Kallikrein Assay; type: biochemical; conditions: purified Human plasma kallikrein 0.5 nM, substrate Acetyl-K-P-R-AFC, pH 7.4; read-out: P. KLK IC50
Description: The effectiveness of a compound of the present invention as an inhibitor of Kallikrein can be determined using a relevant purified serine protease, and an appropriate synthetic substrate. The rate of hydrolysis of the chromogenic or fluorogenic substrate by the relevant serine protease was measured both in the absence and presence of compounds of the present invention. Assays were conducted at room temperature or at 37° C. […] A decrease in the rate of fluorescence change in the presence of inhibitor is indicative of enzyme inhibition. Such methods are known to one skilled in the art. The results of this assay are expressed as the inhibitory constant, Ki.
Kallikrein determinations were made in 50 mM HEPES buffer at pH 7.4 containing 150 mM NaCl, 5 mM CaCl2, and 0.1% PEG 8000 (polyethylene glycol; Fisher Scientific). Determinations were made using purified Human plasma kallikrein at a final concentration of 0.5 nM (Enzyme Research Laboratories) and the synthetic substrate, Acetyl-K-P-R-AFC (Sigma # C6608) at a concentration of […].
Activity assays were performed by diluting a stock solution of substrate at least tenfold to a final concentration ≦0.2 Km into a solution containing enzyme or enzyme equilibrated with inhibitor. Times required to achieve equilibration between enzyme and inhibitor were determined in control experiments. The reactions were performed under linear progress curve conditions and fluorescence increase measured at 405 Ex/510 Em nm. Values were converted to percent inhibition of the control reaction (after subtracting 100% Inhibition value). IC50 was determined by inflection point from a four parameter logistic curve fit. Ki was calculated using the Cheng Prusoff equation, Ki=IC50/(1+([S]/Km)).

Chain of purified Human plasma kallikrein (P03952 391-638): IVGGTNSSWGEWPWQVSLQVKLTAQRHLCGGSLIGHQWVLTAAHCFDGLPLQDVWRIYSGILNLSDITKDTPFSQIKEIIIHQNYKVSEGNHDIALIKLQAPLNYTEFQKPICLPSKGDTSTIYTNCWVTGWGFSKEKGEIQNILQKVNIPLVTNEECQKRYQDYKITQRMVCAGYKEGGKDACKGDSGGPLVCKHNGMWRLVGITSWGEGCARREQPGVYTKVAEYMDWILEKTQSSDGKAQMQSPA
Chain of purified Human plasma kallikrein (P03952 20-390 partner): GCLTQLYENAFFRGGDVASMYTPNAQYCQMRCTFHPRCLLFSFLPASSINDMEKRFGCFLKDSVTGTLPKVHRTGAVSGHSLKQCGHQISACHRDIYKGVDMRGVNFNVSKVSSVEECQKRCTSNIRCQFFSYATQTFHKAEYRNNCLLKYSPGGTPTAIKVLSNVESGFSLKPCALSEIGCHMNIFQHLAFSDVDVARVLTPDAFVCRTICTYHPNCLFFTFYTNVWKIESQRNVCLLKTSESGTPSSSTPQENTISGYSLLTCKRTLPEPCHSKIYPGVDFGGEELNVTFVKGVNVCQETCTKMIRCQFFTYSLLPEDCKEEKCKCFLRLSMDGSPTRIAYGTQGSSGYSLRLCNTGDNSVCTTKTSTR
Chain of purified human Factor XIa (P03951 388-625): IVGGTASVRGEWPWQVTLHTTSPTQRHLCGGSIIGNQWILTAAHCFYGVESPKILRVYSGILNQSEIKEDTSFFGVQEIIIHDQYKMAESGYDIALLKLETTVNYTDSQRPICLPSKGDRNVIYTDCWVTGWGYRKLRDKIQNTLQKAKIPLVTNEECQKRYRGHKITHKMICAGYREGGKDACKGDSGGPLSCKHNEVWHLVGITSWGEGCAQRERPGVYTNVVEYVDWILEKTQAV
Chain of purified human Factor XIa (P03951 19-387 partner): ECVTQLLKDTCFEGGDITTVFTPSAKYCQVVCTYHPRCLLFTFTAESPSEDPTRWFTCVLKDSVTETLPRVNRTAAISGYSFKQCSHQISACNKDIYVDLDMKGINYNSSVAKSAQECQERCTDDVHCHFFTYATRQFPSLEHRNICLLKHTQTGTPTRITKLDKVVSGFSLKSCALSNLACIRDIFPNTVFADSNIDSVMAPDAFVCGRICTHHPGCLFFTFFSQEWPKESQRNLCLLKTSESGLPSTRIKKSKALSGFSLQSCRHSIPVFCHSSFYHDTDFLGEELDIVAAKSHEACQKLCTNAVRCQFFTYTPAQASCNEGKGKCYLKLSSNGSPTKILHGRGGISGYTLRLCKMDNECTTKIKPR

Row | IC50 [1] | IC50 [2] | SMILES
1 | 0.19 nM | 25.1 nM | O=C(O)c1ccc(NC(=O)C(CC2CC2)c2ccc(-c3c(-n4cnnn4)ccc(Cl)c3F)c[n+]2[O-])cc1 (racemic) [Example 50, 4-[(2-{5-[3-chloro-2-fluoro-6-(1H-tetrazol-1-yl)phenyl]-1-oxidopyridin-2-yl}-3-cyclopropylpropanoyl)amino]benzoic acid]
2 | 0.29 nM | 0.7 nM | COc1cc(C(Cc2ccccc2)C(=O)Nc2ccc(C(=O)O)cc2)[n+]([O-])cc1-c1cc(Cl)ccc1C#N (single isomer, unassigned) [Example 24, 2-(1-((4-carboxyphenyl)amino)-1-oxo-3-phenyl-propan-2-yl)-5-(5-chloro-2-cyanophenyl)-4-methoxypyridine 1-oxide]
3 | 18.9 nM | 830 nM | O=C(O)c1ccc(NC(=O)C(CC2CC2)c2ccc(-c3cc(Cl)ccc3OC(F)(F)F)c[n+]2[O-])cc1 (single isomer, unassigned) [Example 39, 4-[(2-{5-[5-chloro-2-(trifluoromethoxy)phenyl]-1-oxidopyridin-2-yl}-3-cyclopropylpropanoyl)amino]benzoic acid]
4 | 0.16 nM | 1.2 nM | O=C(O)c1ccc(NC(=O)[C@H](Cc2ccccc2)c2ccc(-c3cc(Cl)ccc3-n3cnnn3)c[n+]2[O-])cc1 [Example 2, 4-{[(2R)-2-{5-[5-chloro-2-(1H-tetrazol-1-yl)phenyl]-1-oxidopyridin-2-yl}-3-phenylpropanoyl]amino} benzoic acid]
5 | 89.2 nM | 1570 nM | O=C(Cc1ccc(-c2c(F)ccc(Cl)c2F)c[n+]1[O-])Nc1ccc(C(=O)O)cc1 [Example 9, 4-({[5-(3-chloro-2,6-difluorophenyl)-1-oxidopyridin-2-yl]acetyl}amino) benzoic acid]
6 | 4.24 nM | 80.4 nM | N#Cc1ccc(Cl)c(F)c1-c1ccc(C(CC2CC2)C(=O)Nc2ccc(C(=O)O)cc2)[n+]([O-])c1 (single isomer, unassigned) [Example 30, 4-({2-[5-(3-chloro-6-cyano-2-fluorophenyl)-1-oxidopyridin-2-yl]-3-cyclopropylpropanoyl}amino)benzoic acid]
7 | 0.76 nM | 144 nM | O=C(NC12CCC(C(=O)O)(CC1)CC2)C(Cc1ccccc1)c1ccc(-c2cc(Cl)ccc2-n2cnnn2)c[n+]1[O-] (single isomer, unassigned) [Example 17, 4-[(2-{5-[5-chloro-2-(1H-tetrazol-1-yl)phenyl]-1-oxidopyridin-2-yl}-3-phenylpropanoyl)amino] bicyclo[2.2.2]octane-1-carboxylic acid]
8 | 111 nM | 45 nM | O=C(NC12CCC(C(=O)O)(CC1)CC2)C(Cc1ccccc1)c1ccc(-c2c(F)ccc(Cl)c2F)c[n+]1[O-] (single isomer, unassigned) [Example 15, 4-({2-[5-(3-chloro-2,6-difluorophenyl)-1-oxidopyridin-2-yl]-3-phenylpropanoyl}amino) bicyclo[2.2.2]octane-1-carboxylic acid]
9 | 0.07 nM | 17.6 nM | O=C(O)c1ccc(NC(=O)C(CC2CC2)c2ccc(-c3cc(Cl)ccc3-n3cnnn3)c[n+]2[O-])cc1F (single isomer, unassigned) [Example 45, 4-[(2-{5-[5-chloro-2-(1H-tetrazol-1-yl)phenyl]-1-oxidopyridin-2-yl}-3-cyclopropylpropanoyl)amino]-2-fluorobenzoic acid]
10 | 0.46 nM | 83.1 nM | Cc1cc(NC(=O)C(CC2CC2)c2ccc(-c3cc(Cl)ccc3-n3cnnn3)c[n+]2[O-])ccc1C(=O)O (single isomer, unassigned) [Example 48, 4-[(2-{5-[5-chloro-2-(1H-tetrazol-1-yl)phenyl]-1-oxidopyridin-2-yl}-3-cyclopropylpropanoyl)amino]-2-methylbenzoic acid]
11 | 18.5 nM | 1350 nM | O=C(Cc1ccc(-c2cc(Cl)ccc2-n2cnnn2)c[n+]1[O-])Nc1ccc(C(=O)O)cc1 [Example 14, 4-[({5-[5-chloro-2-(1H-tetrazol-1-yl)phenyl]-1-oxidopyridin-2-yl}acetyl)amino] benzoic acid]
12 | 37 nM | 5820 nM | O=C(O)c1ccc(NC(=O)[C@@H](CC2CC2)c2ccc(-c3cc(Cl)ccc3-n3cnnn3)c[n+]2[O-])cc1 [Example 28, 4-{[(2S)-2-{5-[5-chloro-2-(1H-tetrazol-1-yl)phenyl]-1-oxidopyridin-2-yl}-3-cyclopropylpropanoyl]amino}benzoic acid]
13 | 18 nM | 3260 nM | O=C(O)c1ccc(NC(=O)C(CC2CC2)c2ccc(-c3cc(Cl)ccc3-n3cnnn3)c[n+]2[O-])cc1F (single isomer, unassigned) [Example 44, 4-[(2-{5-[5-chloro-2-(1H-tetrazol-1-yl)phenyl]-1-oxidopyridin-2-yl}-3-cyclopropylpropanoyl)amino]-2-fluorobenzoic acid]
14 |  | 363 nM | O=C(O)c1ccc(NC(=O)C(CC2CC2)c2ccc(-c3cc(Cl)ccc3-n3cc(C(F)F)nn3)c[n+]2[O-])cc1 (racemic) [Example 41, 4-{[2-(5-{5-chloro-2-[4-(difluoromethyl)-1H-1,2,3-triazol-1-yl]phenyl}-1-oxidopyridin-2-yl)-3-cyclopropylpropanoyl]amino}benzoic acid]
15 | 5.65 nM | 408 nM | O=C(O)c1ccc(NC(=O)C(CC2CC2)c2ccc(-c3cc(Cl)ccc3-c3cnco3)c[n+]2[O-])cc1 (single isomer, unassigned) [Example 35, 4-[(2-{5-[5-chloro-2-(1,3-oxazol-5-yl)phenyl]-1-oxidopyridin-2-yl}-3-cyclopropylpropanoyl)amino]benzoic acid]
16 | 14.2 nM | 67.1 nM | O=C(O)c1ccc(NC(=O)[C@@H](Cc2ccc(F)cc2)c2ccc(-c3cc(Cl)ccc3-n3cnnn3)c[n+]2[O-])cc1 [Example 7, 4-{[(2S)-2-{5-[5-chloro-2-(1H-tetrazol-1-yl)phenyl]-1-oxidopyridin-2-yl}-3-(4-fluorophenyl)propanoyl]amino}benzoic acid]
17 | 30.6 nM | 1880 nM | NCc1ccc(Cl)cc1-c1ccc(C(CC2CC2)C(=O)Nc2ccc(C(=O)O)cc2)[n+]([O-])c1 (racemic) [Example 40, 4-[(2-{5-[2-(aminomethyl)-5-chlorophenyl]-1-oxidopyridin-2-yl}-3-cyclopropylpropanoyl)amino]benzoic acid]
18 | 3.63 nM | 18.2 nM | O=C(O)c1ccc(NC(=O)[C@H](Cc2ccccc2)c2ccc(-c3c(F)ccc(Cl)c3F)c[n+]2[O-])cc1 [Example 4, 4-({(2R)-2-[5-(3-chloro-2,6-difluorophenyl)-1-oxidopyridin-2-yl]-3-phenylpropanoyl}amino) benzoic acid]
19 | 9.39 nM | 24.6 nM | COc1cc(C(Cc2ccccc2)C(=O)Nc2ccc(C(=O)O)cc2)[n+]([O-])cc1-c1cc(Cl)ccc1C#N (single isomer, unassigned) [Example 23, 2-(1-((4-carboxyphenyl)amino)-1-oxo-3-phenylpropan-2-yl)-5-(5-chloro-2-cyanophenyl)-4-methoxypyridine 1-oxide]
20 | 4.1 nM | 9.2 nM | COC(=O)NC12CCC(NC(=O)C(Cc3ccccc3)c3ccc(-c4cc(Cl)ccc4-n4cnnn4)c[n+]3[O-])(CC1)CC2 (single isomer, unassigned) [Example 19, methyl {4-[(2-{5-[5-chloro-2-(1H-tetrazol-1-yl)phenyl]-1-oxidopyridin-2-yl}-3-phenylpropanoyl)amino]bicyclo[2.2.2]oct-1-yl}carbamate]
21 | 0.14 nM | 23.8 nM | O=C(O)c1ccc(NC(=O)[C@H](CC2CC2)c2ccc(-c3cc(Cl)ccc3-n3cnnn3)c[n+]2[O-])cc1 [Example 27, 4-{[(2R)-2-{5-[5-chloro-2-(1H-tetrazol-1-yl)phenyl]-1-oxidopyridin-2-yl}-3-cyclopropylpropanoyl]amino}benzoic acid]
